Biological target: T1, Elastase from porcine pancreas (Sus scrofa, UniProt P00772)
T1 construct: gene CELA1
Test: enzyme inhibition assay, p-nitroaniline release from N-succinyl-Ala-Ala-Ala-p-nitroanilide
Type: biochemical

T1 sequence (P00772 27-266): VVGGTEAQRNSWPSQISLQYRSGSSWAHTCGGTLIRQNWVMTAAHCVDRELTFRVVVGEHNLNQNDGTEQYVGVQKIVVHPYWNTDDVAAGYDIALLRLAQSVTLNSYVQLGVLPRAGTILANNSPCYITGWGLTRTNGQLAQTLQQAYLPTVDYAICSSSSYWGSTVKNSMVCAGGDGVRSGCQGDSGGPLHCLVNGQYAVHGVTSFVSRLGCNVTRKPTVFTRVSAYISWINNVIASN

IC50: 1210 nM
SMILES: CCCCc1cs/c(=N\C(=O)c2ccc(Br)cc2)n1-c1cnc2ccccc2c1 [compound 6, (Z)-4-bromo-N-(4-butyl-3-(quinolin-3-yl)thiazol-2(3H)-ylidene)benzamide]
